pEC50, pIC50: −log10 of the molar value.
Legend:
[1] = tested on: MUC1-wt; test: High-content imaging assay of MUC1-wt total cytoplasm intensity in P cells; assay type: cell-based; conditions: for EC50: MUC1-wt total cytoplasm intensity, P cells, 48 hr incubation; for WT ECMax: MUC1-wt, DMSO = 0, JQ1 (250 nM) = −100% activity
Description: (§1) P cells were seeded 24 hr prior to compound treatment at a density of 12,000 cells/well in 384 well Cell Carrier Ultra plates (6057308, Perkin Elmer), pre-coated with 0.25 mg/mL Synthemax 11 SC Substrate (3535, Corning). Compounds were used at 5 doses (35, 3.5, 0.35, 0.035 and 0.0035 μM) for the primary screen and 10 doses (16, 5.6, 1.8, 0.6, 0.21, 0.07, 0.02, 0.008, 0.002 and 0.0008 μM) for the following screens. The compounds, in two replicates, were transferred from compound source plates to the cell plates using the HighRes Pin Tool. DMSO was used as a negative control and JQ1 (250 nM) (a bromodomain inhibitor) was chosen as a positive control, based on earlier studies showing its potent effect on reducing total MUC1 mRNA levels (data not shown). After 48 hr incubation, cells were fixed for 20 min in 4% PFA (Electron Microscopy Sciences) in PBS, washed twice, then permeabilized (10 min) with 0.5% Triton-X100 (X100-100MVL, Sigma-Aldrich) in PBS and washed once more. Cells were blocked for 10 min at RT with Blocking solution (100 mM Tris HCL pH8; l150 mM NaCL; 5 g/L Blocking Reagent [11096176001, Roche]), then incubated 90 min at RT with one of the following primary antibodies in Roche Blocking solution: 1:500, monoclonal Fab-A-V5H anti-MUC1-fs, AbD22655.2, Bio-Rad; 1:2000, monoclonal mouse anti-MUC1 (214D4), 05-652-KC, Millipore; 1:1000, monoclonal, Rabbit anti-GM130 (D6B1) XP, 12480, Cell signaling technology. The primary antibody cocktail was incubated at RT for 1.5 hr, followed by four PBS wash cycles. The secondary antibody cocktail contained four components that were all prepared at a 1:1000 dilution in the Roche blocking solution and consisted of Alexa Fluor® 488-conjugated AffiniPure F(ab′)2 Fragment Goat anti-Human IgG, 109-546-097, Jackson Immunoresearch; Alexa Fluor® 647-conjugated Goat anti-Rabbit IgG, A-21246, Thermo Fisher Scientific®; Alexa Fluor® 546 Goat anti-mouse IgG, A-21123, Thermo Fisher Scientific® and Hoechst 33342 stain (62249, Thermo Fisher Scientific®). The secondary antibody cocktail was incubated at RT for 45 min, followed by four PBS wash cycles. Finally, plates were sealed with a Plate Loc plate and stored in Liconic incubator at 10° C. until imaging. Following image analysis, three parameters were selected, i) MUC1-fs and ii) MUC1-wt total cytoplasm intensity (averaged per cell) and iii) cell number as was detected by Hoechst 33342 stained nuclei. The levels of MUC1-fs and MUC1-wt found following DMSO and JQ1 were defined as 0 and −100% activity, respectively. The values obtained for all compounds were normalized accordingly. Cell number was normalized to DMSO control.
(§2) The pure enantiomers were profiled in the high-content imaging assay for the ability to reduce the amount of FS MUC1 protein in the cytoplasm (Table 48) following the procedure of Example 4.

[2] = tested on: MUC1-fs; test: High-content imaging assay of MUC1-fs total cytoplasm intensity in P cells; assay type: cell-based; conditions: for pEC50: MUC1-fs total cytoplasm intensity, P cells, 48 hr incubation; for ECMax: MUC1-fs, DMSO = 0, JQ1 (250 nM) = −100% activity
Description: as §1, §2

[3] = high-content imaging assay, procedure of Example 4

Row | pEC50 [2] | EC50 [1] | pIC50 [2, 3] | pIC50 ([2]; second pair of columns (c3-c4)) | Structure (SMILES) | reduction in wild-type MUC1 levels [1, 3] | ECMax [2] | WT ECMax [1] | FS MUC1 cytoplasm EMax (%) [2, 3] | FS MUC1 cytoplasm EMax (%) ([2]; second pair of columns (c3-c4))
1 |  |  |  |  | CC(C)C1C2CCC(C2)C1N.Cl (racemic) [BRD4780, rac-3-exo-isopropylbicyclo[2.2.1]heptan-2-endo-amine hydrochloride, reference compound] | no observed reduction |  |  |  | 
2 | 5.67 | > 32 µM |  |  | CC(C)[C@H]1[C@H]2CC[C@H](C2)[C@H]1N.Cl (racemic) [Compound 103, rac-3-endo-isopropylbicyclo[2.2.1]heptan-2-endo-amine hydrochloride] |  | −83.25% | −13.31% |  | 
3 | 6.35 | > 32 µM |  |  | Cl.N[C@@H]1[C@@H]2CC[C@@H](C2)[C@H]1C1CC1 (racemic) [Compound 109] |  | −73.56% | −12.5% |  | 
4 | < 4.49 | > 32 µM |  |  | CC(C)C[C@@H]1[C@H]2CC[C@H](C2)[C@H]1N.Cl (racemic) [Compound 111] |  | −9.02% | 10.58% |  | 
5 | < 4.49 | > 32 µM |  |  | CC(C)C[C@H]1[C@H]2CC[C@H](C2)[C@@H]1N.Cl (racemic) [Compound 112] |  | 18.48% | −8.84% |  | 
6 | 6.32 | > 32 µM |  |  | Cl.N[C@@H]1[C@@H]2CC[C@@H](C2)[C@H]1C1CCC1 (racemic) [Compound 113] |  | −46.53% | 13.12% |  | 
7 | 4.89 | > 32 µM |  |  | Cl.N[C@H]1[C@@H]2CC[C@@H](C2)[C@@H]1C1CCC1 (racemic) [Compound 114-rac] |  | −44.74% | 18.3% |  | 
8 | 6.53 | 12.3 µM |  |  | CC(C)(C)[C@@H]1[C@H]2CC[C@H](C2)[C@H]1N.Cl (racemic) [Compound 115] |  | −79.02% | 71.79% |  | 
9 | < 4.49 | > 32 µM |  |  | Cl.N[C@@H]1[C@@H]2CC[C@@H](C2)[C@H]1C1CCCCC1 (racemic) [Compound 118] |  | −9.08% | −8.52% |  | 
10 | < 4.49 | > 32 µM |  |  | Cl.N[C@H]1[C@@H]2CC[C@@H](C2)[C@@H]1C1CCCCC1 (racemic) [Compound 119] |  | 20.39% | 14.48% |  | 
11 |  |  | 6.81 | 5.04 | CC(C)[C@H]1[C@@H]2CC[C@@H](C2)[C@@H]1N.Cl (single isomer, unassigned) [BRD4780 Fr1, hydrochloride] |  |  |  |  | 
12 |  |  |  |  | CC(C)[C@H]1[C@@H]2CC[C@@H](C2)[C@@H]1N.Cl (single isomer, unassigned) [BRD4780 Fr1] |  |  |  | −42% | 113%
13 |  |  | 6.76 | 4.90 | CC(C)[C@@H]1[C@H]2CC[C@H](C2)[C@H]1N.Cl (single isomer, unassigned) [BRD4780 Fr2, hydrochloride] |  |  |  |  | 
14 |  |  |  |  | CC(C)[C@@H]1[C@H]2CC[C@H](C2)[C@H]1N.Cl (single isomer, unassigned) [BRD4780 Fr2] |  |  |  | −46% | 60%
15 | 4.71 | > 32 µM |  |  | C[C@@H]1[C@H]2CC[C@H](C2)[C@H]1N.Cl (single isomer, unassigned) [Compound 104-P1, (1R,2R,3R,4S)-3-methylbicyclo[2.2.1]heptan-2-amine hydrochloride] |  |  |  |  | 
16 |  |  |  |  | C[C@@H]1[C@H]2CC[C@H](C2)[C@H]1N.Cl (single isomer, unassigned) [Compound 104-P1] |  | −47.64% | −13.75% |  | 

Row | pEC50 [2] | EC50 [1] | pIC50 [2, 3] | pIC50 ([2]; second pair of columns (c3-c4)) | Structure (SMILES) | reduction in wild-type MUC1 levels [1, 3] | ECMax [2] | WT ECMax [1] | FS MUC1 cytoplasm EMax (%) [2, 3] | FS MUC1 cytoplasm EMax (%) ([2]; second pair of columns (c3-c4))
17 | 5.35 | > 32 µM |  |  | C[C@@H]1[C@H]2CC[C@H](C2)[C@H]1N.Cl (single isomer, unassigned) [Compound 104-P2, hydrochloride] |  |  |  |  | 
18 |  |  |  |  | C[C@@H]1[C@H]2CC[C@H](C2)[C@H]1N.Cl (single isomer, unassigned) [Compound 104-P2] |  | −78.16% | −14.86% |  | 
19 | < 4.49 | > 32 µM |  |  | Cl.N[C@@H]1[C@@H]2CC[C@@H](C2)[C@H]1C1CC1 (single isomer, unassigned) [Compound 109-P1] |  | −32.29% | 9.06% |  | 
20 | 6.28 | > 32 µM |  |  | Cl.N[C@H]1[C@H]2CC[C@H](C2)[C@@H]1C1CC1 (single isomer, unassigned) [Compound 109-P2] |  | −74.31% | −14.32% |  | 
21 | 5.07 | > 32 µM |  |  | Cl.N[C@H]1[C@@H]2CC[C@@H](C2)[C@@H]1C1CC1 (single isomer, unassigned) [Compound 110-P1, (1R,2S,3S,4S)-3-cyclopropylbicyclo[2.2.1]heptan-2-amine hydrochloride] |  |  |  |  | 
22 |  |  |  |  | Cl.N[C@H]1[C@@H]2CC[C@@H](C2)[C@@H]1C1CC1 (single isomer, unassigned) [Compound 110-P1] |  | −50.96% | −8.95% |  | 
23 | 5.47 | > 32 µM |  |  | Cl.N[C@@H]1[C@H]2CC[C@H](C2)[C@H]1C1CC1 (single isomer, unassigned) [Compound 110-P2, (1S,2R,3R,4R)-3-cyclopropylbicyclo[2.2.1]heptan-2-amine hydrochloride] |  |  |  |  | 
24 |  |  |  |  | Cl.N[C@@H]1[C@H]2CC[C@H](C2)[C@H]1C1CC1 (single isomer, unassigned) [Compound 110-P2] |  | −47.09% | −12.31% |  | 
25 | < 4.49 | > 32 µM |  |  | CC(C)C[C@@H]1[C@H]2CC[C@H](C2)[C@H]1N.Cl (single isomer, unassigned) [Compound 111-P1] |  | −12.73% | −10.33% |  | 
26 | < 4.49 | > 32 µM |  |  | CC(C)C[C@H]1[C@@H]2CC[C@@H](C2)[C@@H]1N.Cl (single isomer, unassigned) [Compound 111-P2] |  | −11.51% | −9.06% |  | 
27 | < 4.49 | < 32 µM |  |  | CC(C)C[C@H]1[C@H]2CC[C@H](C2)[C@@H]1N.Cl (single isomer, unassigned) [Compound 112-P1] |  | 26.46% | 9.15% |  | 
28 | < 4.49 | > 32 µM |  |  | CC(C)C[C@@H]1[C@@H]2CC[C@@H](C2)[C@H]1N.Cl (single isomer, unassigned) [Compound 112-P2] |  | 13.14% | 7.52% |  | 
29 | < 4.49 | > 32 µM |  |  | Cl.N[C@@H]1[C@@H]2CC[C@@H](C2)[C@H]1C1CCC1 (single isomer, unassigned) [Compound 113-P1] |  | −13.24% | −9.71% |  | 
30 | 4.52 | > 32 µM |  |  | Cl.N[C@H]1[C@@H]2CC[C@@H](C2)[C@@H]1C1CCC1 (single isomer, unassigned) [Compound 114-P1] |  | −28.1% | 5.99% |  | 
31 | < 4.49 | > 32 µM |  |  | Cl.N[C@@H]1[C@H]2CC[C@H](C2)[C@H]1C1CCC1 (single isomer, unassigned) [Compound 114-P2] |  | −15.43% | 9.94% |  | 

Row | Structure (SMILES) | pEC50 [2] | EC50 [1] | pIC50 [2, 3] | pIC50 ([2]; second pair of columns (c3-c4)) | reduction in wild-type MUC1 levels [1, 3] | ECMax [2] | WT ECMax [1] | FS MUC1 cytoplasm EMax (%) [2, 3] | FS MUC1 cytoplasm EMax (%) ([2]; second pair of columns (c3-c4))
32 | CCC[C@@H]1[C@H]2CC[C@H](C2)[C@H]1N.Cl (racemic) [Compound 107-rac] | < 4.49 | > 32 µM |  |  |  | 10.08% | 8.64% |  | 
33 | CCC[C@H]1[C@H]2CC[C@H](C2)[C@@H]1N.Cl (racemic) [Compound 108-rac] | < 4.49 | > 32 µM |  |  |  | −8.01% | −4.32% |  | 
34 | Cl.N[C@@H]1[C@@H]2CC[C@@H](C2)[C@H]1c1ccccc1 (racemic) [Compound 120] | < 4.49 | > 32 µM |  |  |  | −27.71% | 15.88% |  | 
35 | Cl.N[C@@H]1[C@@H]2CC[C@@H](C2)[C@H]1c1cccs1 (racemic) [Compound 122] | < 4.49 | > 32 µM |  |  |  | −12.17% | −10.53% |  | 

— patent US20240116850A1, “COMPOSITIONS AND METHODS RELATED TO BICYCLO[2.2.1] HEPTANAMINE-CONTAINING COMPOUNDS” (The Broad Institute, Inc., priority 2020, published 2024)
